According to ChEMBL document CHEMBL5380777, “Efficacy, Mechanism, and Structure-Activity Relationship of 6-Methoxy Benzofuran Derivatives as a Useful Tool for Senile Osteoporosis” (J Med Chem, 2023):
Activity calls are given as the source filed them. The rule behind the calls is not given here.

Experiments:
[1] = Toxicity in 2.5 months old SAMP-6 rapid aging mouse model assessed as morphological change in liver administered at 30 mg/kg/day, IG continuously for 3 months in presence of ALN by hematoxylin and eosin staining analysis; assay type: organism-based; conditions: in vivo, po, 2190 h
[2] = Toxicity in 16 months old C57 mouse assessed as change in cholesterol level administered at 30 mg/kg/day, IG for 4 months for every 6 days; assay type: organism-based; conditions: in vivo, po, 2920 h
[3] = tested on: Osteoblast; test: Regulation of osteogenesis in 16 months old C57 mouse osteoblast endoplasmic reticulum assessed as increase in Hsph1 gene by scRNA-seq analysis; assay type: functional, cell-based
[4] = tested on: Osteoblast; test: Upregulation of transcription factor XBP1 expression in 16 months old C57 mouse osteoblast by scRNA-seq analysis; assay type: functional, cell-based
[5] = tested on: Mus musculus; test: Anti osteoporosis in 16 months old C57 mouse assessed as increase in bone mass administered at 30 mg/kg/day, IG continuously for 2 months by micro CT analysis relative to young control group; assay type: functional, organism-based
[6] = tested on: Osteoblast; test: Upregulation of transcription factor CSDE1 expression in 16 months old C57 mouse osteoblast by scRNA-seq analysis; assay type: functional, cell-based
[7] = tested on: Osteoblast; test: Regulation of osteogenesis in 16 months old C57 mouse osteoblast endoplasmic reticulum assessed as increase in CRYAB gene by scRNA-seq analysis; assay type: functional, cell-based
[8] = tested on: Mus musculus; test: Anti osteoporosis in 16 months old C57 mouse assessed as granulocyte level in femur administered at 30 mg/kg/day, IG continuously for 4 months by scRNA-seq analysis (reference value: 28.33%); assay type: functional; conditions: 2920 h
[9] = Toxicity in 16 months old C57 mouse assessed as change in serum ALT level administered at 30 mg/kg/day, IG continuously for 4 months; assay type: organism-based; conditions: in vivo, po, 2920 h
[10] = tested on: MC3T3-E1; test: Induction of ALP activity in mouse MC3T3-E1 cells in osteogenic differentiation culture at 1 uM measured on day 7; assay type: functional, cell-based; conditions: time 7.0 day
[11] = tested on: Mus musculus; test: Anti osteoporosis in 16 months old C57 mouse assessed as reconstruction of bone microstructure administered at 30 mg/kg/day, IG continuously for 4 months by micro CT analysis relative to aged control group; assay type: functional, organism-based
[12] = Toxicity in 2.5 months old SAMP-6 rapid aging mouse model assessed as change in serum AST level administered at 30 mg/kg/day, IG continuously for 3 months; assay type: organism-based; conditions: in vivo, po, 2190 h
[13] = tested on: Osteoblast; test: Upregulation of transcription factor PSMD12 expression in 16 months old C57 mouse osteoblast by scRNA-seq analysis; assay type: functional, cell-based
[14] = Toxicity in 16 months old C57 mouse assessed as change in urea level administered at 30 mg/kg/day, IG continuously for 4 months; assay type: organism-based; conditions: in vivo, po, 2920 h
[15] = tested on: Mus musculus; test: Anti osteoporosis in 16 months old C57 mouse assessed as dendritic cell level in femur administered at 30 mg/kg/day, IG continuously for 4 months by scRNA-seq analysis (reference value: 1.34%); assay type: functional; conditions: 2920 h
[16] = tested on: Osteocyte; test: Upregulation of BMP-2 expression in 16 months old C57 mouse osteocytes by scRNA-seq analysis; assay type: functional, cell-based
[17] = tested on: Mus musculus; test: Anti osteoporosis in 16 months old C57 mouse assessed as erythroblast level in femur administered at 30 mg/kg/day, IG continuously for 4 months by scRNA-seq analysis (reference value: 1.91%); assay type: functional; conditions: 2920 h
[18] = tested on: Mus musculus; test: Anti osteoporosis in 2.5 months old SAMP-6 rapid aging mouse model assessed as upregulation of serum BMP2 administered at 30 mg/kg/day, IG in presence of ALN continuously for 3 months […]; assay type: functional, organism-based
[19] = Toxicity in 2.5 months old SAMP-6 rapid aging mouse model assessed as change in serum AST level administered at 30 mg/kg/day, IG continuously for 3 months in presence of ALN; assay type: organism-based; conditions: in vivo, po, 2190 h
[20] = Toxicity in 16 months old C57 mouse assessed as change in alkaline phosphatase level administered at 30 mg/kg/day, IG continuously for 4 months; assay type: organism-based; conditions: in vivo, po, 2920 h
[21] = tested on: Mus musculus; test: Anti osteoporosis in 16 months old C57 mouse assessed as increase in bone mass administered at 30 mg/kg/day, IG continuously for 4 months by micro CT analysis relative to young control group; assay type: functional, organism-based
[22] = tested on: Mus musculus; test: Anti osteoporosis in 16 months old C57 mouse assessed as megakaryocyte level in femur administered at 30 mg/kg/day, IG continuously for 4 months by scRNA-seq analysis (reference value: 1%); assay type: functional; conditions: 2920 h
[23] = tested on: Mus musculus; test: Anti osteoporosis in 2.5 months old SAMP-6 rapid aging mouse model assessed as increase in osteoblast formation administered at 30 mg/kg/day, IG continuously for 3 months; assay type: functional, organism-based
[24] = tested on: Mus musculus; test: Anti osteoporosis in 16 months old C57 mouse assessed as chondroblast level in femur administered at 30 mg/kg/day, IG continuously for 4 months by scRNA-seq analysis (reference value: 2.49%); assay type: functional; conditions: 2920 h
[25] = tested on: Mus musculus; test: Anti osteoporosis in 16 months old C57 mouse assessed as fold increase in chondrocytes level in femur administered at 30 mg/kg/day, IG continuously for 4 months by scRNA-seq analysis relative to control; assay type: functional; conditions: 2920 h
[26] = tested on: Osteoblast; test: Regulation of osteogenesis in 16 months old C57 mouse osteoblast endoplasmic reticulum assessed as increase in Hsp90ab1 gene by scRNA-seq analysis; assay type: functional, cell-based
[27] = tested on: Osteoclast; test: Upregulation of BMP-2 expression in 16 months old C57 mouse osteoclast by scRNA-seq analysis; assay type: functional, cell-based
[28] = Toxicity in 16 months old C57 mouse assessed as change in total protein level administered at 30 mg/kg/day, IG continuously for 4 months; assay type: organism-based; conditions: in vivo, po, 2920 h
[29] = Toxicity in 16 months old C57 mouse assessed as change in serum AST level administered at 30 mg/kg/day, IG continuously for 4 months; assay type: organism-based; conditions: in vivo, po, 2920 h
[30] = tested on: Mus musculus; test: Anti osteoporosis in 2.5 months old SAMP-6 rapid aging mouse model assessed as increase in bone mass administered at 30 mg/kg/day, IG continuously for 3 months in presence of ALN by micro CT analysis; assay type: functional, organism-based
[31] = tested on: Mus musculus; test: Anti osteoporosis in 2.5 months old SAMP-6 rapid aging mouse model assessed as upregulation of serum BMP2 administered at 30 mg/kg/day, IG continuously for 3 months […]; assay type: functional, organism-based
[32] = tested on: Osteoblast; test: Upregulation of transcription factor […] expression in 16 months old C57 mouse osteoblast by scRNA-seq analysis; assay type: functional, cell-based
[33] = tested on: Osteoblast; test: Regulation of osteogenesis in 16 months old C57 mouse osteoblast endoplasmic reticulum assessed as increase in Hspa8 gene by scRNA-seq analysis; assay type: functional, cell-based
[34] = tested on: Mus musculus; test: Anti osteoporosis in 16 months old C57 mouse assessed as endothelial cell level in femur administered at 30 mg/kg/day, IG continuously for 4 months by scRNA-seq analysis (reference value: 2.34%); assay type: functional; conditions: 2920 h
[35] = Toxicity in 16 months old C57 mouse assessed as change in blood glucose level administered at 30 mg/kg/day, IG continuously for 4 months; assay type: organism-based; conditions: in vivo, po, 2920 h
[36] = Toxicity in 2.5 months old SAMP-6 rapid aging mouse model assessed as change in ALP level administered at 30 mg/kg/day, IG continuously for 3 months in presence of ALN; assay type: organism-based; conditions: in vivo, po, 2190 h
[37] = Toxicity in 2.5 months old SAMP-6 rapid aging mouse model assessed as change in creatinine level administered at 30 mg/kg/day, IG continuously for 3 months; assay type: organism-based; conditions: in vivo, po, 2190 h

COc1ccc2cc(C(=O)NCCN(C)C)oc2c1.CS(=O)(=O)O
Activity [1]: Non-Toxic
Activity [2]: Non-Toxic
Activity [3]: Active
Activity [4]: Active
Activity [5]: inactive
Activity [6]: Active
Activity [7]: Active
Activity [8]: 34.01%
Activity [9]: Non-Toxic
Activity [10]: Active
Activity [11]: Active
Activity [12]: Non-Toxic
Activity [13]: Active
Activity [14]: Non-Toxic
Activity [15]: 0.68%
Activity [16]: Active
Activity [17]: 1.42%
Activity [18]: Active
Activity [19]: Non-Toxic
Activity [20]: Non-Toxic
Activity [21]: Active
Activity [22]: 0.78%
Activity [23]: Active
Activity [24]: 3.77%
fold change (FC) [25]: 2
Activity [26]: Active
Activity [27]: Active
Activity [28]: Non-Toxic
Activity [29]: Non-Toxic
Activity [30]: Active
Activity [31]: Active
Activity [32]: Active
Activity [33]: Active
Activity [34]: 2.38%
Activity [35]: Non-Toxic
Activity [36]: Non-Toxic
Activity [37]: Non-Toxic
